In patent publication US20260242372A1, “NOVEL IMIDAZOPYRIDINE AND PYRAZOLOPYRIDINE SULFONAMIDE DERIVATIVES” (Hoffmann-La Roche Inc., priority 2022, published 2026) one finds IC50 data, which are given here for 30 compounds.

As a reminder, the IC50 is the concentration that gives 50% inhibition.

Sequence of human GPR17 short isoform (Q13304 29-367): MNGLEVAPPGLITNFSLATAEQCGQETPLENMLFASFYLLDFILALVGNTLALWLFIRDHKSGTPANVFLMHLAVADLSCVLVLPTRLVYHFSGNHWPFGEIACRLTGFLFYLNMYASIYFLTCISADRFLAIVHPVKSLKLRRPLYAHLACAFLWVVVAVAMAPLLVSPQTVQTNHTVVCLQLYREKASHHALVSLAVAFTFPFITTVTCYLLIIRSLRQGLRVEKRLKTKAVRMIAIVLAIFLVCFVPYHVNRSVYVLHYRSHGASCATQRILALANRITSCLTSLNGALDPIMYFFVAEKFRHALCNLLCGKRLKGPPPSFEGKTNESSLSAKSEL

This assay concerns the target human GPR17 short isoform (Homo sapiens, UniProt Q13304). Put plainly: GPR17 cAMP assay (hGPR17 cAMP, TR-FRET, antagonist mode). It counts as cell-based. To be noted: CHO-K1 cells stably expressing human GPR17 short isoform; EC80 of agonist MDL29,951; forskolin 15 μM; 30 min at room temperature. As for the experimental part:
CHO-K1 cells stably expressing vector containing untagged human GPR17 short isoform (Roche) were cultured at 37° C./5% CO2 in DMEM (Dulbecco's Modified Eagle Medium): F-12 (1:1) supplemented with 10% foetal bovine serum and 400 μg/ml Geneticin.
Changes in intracellular cyclic adenosine monophosphate (cAMP) levels were quantified using the Nano-TRF Detection Assay kit (Roche Diagnostics, Cat. No. 05214386001). This assay allows for direct cAMP quantification in a homogeneous solution. CAMP is detected based on time-resolved fluorescence energy transfer (TR-FRET) and competitive binding of ruthenylated cAMP and endogenous cAMP to an anti-cAMP monoclonal antibody labeled with AlexaFluor-700. The Ruthenium complex serves as the FRET donor and transfers energy to AlexaFluor-700. The FRET signal is inversely proportional to the CAMP concentration.
CHO-GPR17S cells were detached with Accutase and resuspended in assay buffer consisting of Hank's Balanced Salt Solution (HBSS), 10 mM HEPES (4-(2-hydroxyethyl) piperazine-1-ethanesulfonic acid solution) and 0.1% bovine serum albumin (pH 7.4). The cells were seeded in black 384-well plates (Corning) at a density of 10′000 cells/20 μl assay buffer until the addition of compounds.
Test antagonist compounds were serially diluted in dimethyl sulfoxide (DMSO) and spotted in 384-well plates. The compounds were then diluted in HBSS buffer supplemented with an EC80 concentration of MDL29,951 (3-(2-Carboxy-4,6-dichloroindol-3-yl) propionic acid) (GPR17 agonist) plus 3-Isobutyl-1-methylxanthine (IBMX) (0.5 mM final concentration) and added to the cells at room temperature. Forskolin (15 μM final concentration) was added 5 minutes after the test compounds and the cells were incubated at room temperature for 30 minutes. The assay was stopped by adding cAMP detection mix (containing detergents for cell lysis) for 90 minutes at room temperature.
Cellular cAMP was measured using a Paradigm reader (Molecular Devices). The raw data was used to calculate the FRET signal based on the assay's P-factor as per cAMP kit instructions. The data was normalized to the maximal activity of a reference antagonist and dose response curves were fitted to the percent activity of the test compounds using a sigmoidal dose response model (Genedata Screener).
In general terms: Cyclic AMP is a second messenger, typically raised through Gs and lowered through Gi signalling.
In turn, `COc1ccn2c(S(=O)(=O)Nc3cc(F)c(CC#N)cc3F)cnc2n1` [Example 73, N-[4-(cyanomethyl)-2,5-difluoro-phenyl]-7-methoxy-imidazo[1,2-a]pyrimidine-3-sulfonamide] came in with a half-maximal inhibitory concentration (IC50) of 876 nM. `COc1nc(C2COC2)c(F)cc1NS(=O)(=O)c1cnn2cc(Br)ccc12` [Example 87, 6-bromo-N-[5-fluoro-2-methoxy-6-(oxetan-3-yl)-3-pyridyl]pyrazolo[1,5-a]pyridine-3-sulfonamide]: the IC50 worked out at 367 nM. The compound `COc1cc(CC#N)c(F)cc1NS(=O)(=O)c1cnc2nc(C3CC3)ccn12` [Example 18, N-[4-(cyanomethyl)-5-fluoro-2-methoxy-phenyl]-7-cyclopropyl-imidazo[1,2-a]pyrimidine-3-sulfonamide] displayed an IC50 of 19 nM. On to `COc1nc(NS(=O)(=O)c2cnc3cc(Cl)ccn23)c(F)cc1CC(F)F` [Example 24, 7-chloro-N-[5-(2,2-difluoroethyl)-3-fluoro-6-methoxy-2-pyridyl]imidazo[1,2-a]pyridine-3-sulfonamide], for which the half-maximal inhibitory concentration (IC50) was determined as 23 nM.

`COc1c(C)ccn2c(S(=O)(=O)Nc3cc(F)c(Br)cc3F)cnc12` [Example 57, N-(4-bromo-2,5-difluoro-phenyl)-8-methoxy-7-methyl-imidazo[1,2-a]pyridine-3-sulfonamide] showed an IC50 of 137 nM. `COc1ccn2c(S(=O)(=O)Nc3cc(F)c(CC#N)cc3F)cnc2c1` [Example 55, N-[4-(cyanomethyl)-2,5-difluoro-phenyl]-7-methoxy-imidazo[1,2-a]pyridine-3-sulfonamide]: the half-inhibitory concentration (IC50) amounted to 116 nM. Compound `COc1ccn2c(S(=O)(=O)Nc3cc(F)c(OCC(F)F)nc3OC)cnc2c1C#N` [Example 60, 8-cyano-N-[6-(2,2-difluoroethoxy)-5-fluoro-2-methoxy-3-pyridyl]-7-methoxy-imidazo[1,2-a]pyridine-3-sulfonamide] returned an IC50 of 179 nM. Against the preceding compound, the IC50 is about 1.5-fold higher. As to `COc1nc(OC(F)F)c(F)cc1NS(=O)(=O)c1cnc2c(C#N)c(C)ccn12` [Example 43, 8-cyano-N-[6-(difluoromethoxy)-5-fluoro-2-methoxy-3-pyridyl]-7-methyl-imidazo[1,2-a]pyridine-3-sulfonamide], the IC50 is 75 nM. In the case of `COc1nc(OCC(F)F)c(F)cc1NS(=O)(=O)c1cnc2n1CCC(C)O2` (stereo not drawn) [Example 53, N-[6-(2,2-difluoroethoxy)-5-fluoro-2-methoxy-3-pyridyl]-7-methyl-6,7-dihydro-5H-imidazo[2,1-b][1,3]oxazine-3-sulfonamide], the 50% inhibitory concentration (IC50) is 101 nM. Take `COc1nc(NS(=O)(=O)c2cnn3cc(Br)ccc23)c(F)cc1OCC(F)F` [Example 81, 6-bromo-N-[5-(2,2-difluoroethoxy)-3-fluoro-6-methoxy-2-pyridyl]pyrazolo[1,5-a]pyridine-3-sulfonamide]: the 50% inhibitory concentration (IC50) turned out to be 49 nM. Take `COc1nc(OCC(F)F)c(F)cc1NS(=O)(=O)c1cnn2cc(Br)ccc12` [Example 78, 6-bromo-N-[6-(2,2-difluoroethoxy)-5-fluoro-2-methoxy-3-pyridyl]pyrazolo[1,5-a]pyridine-3-sulfonamide]: the 50% inhibitory concentration (IC50) stood at 10 nM. This IC50 lies about 4.9-fold lower than the previous one. In turn, `COc1nc(C2COC2)c(F)cc1NS(=O)(=O)c1cnc2cc(Cl)ccn12` [Example 70, 7-chloro-N-[5-fluoro-2-methoxy-6-(oxetan-3-yl)-3-pyridyl]imidazo[1,2-a]pyridine-3-sulfonamide] returned an IC50 of 407 nM. Consider `COc1nc(OCC(F)F)c(F)cc1NS(=O)(=O)c1cnn2c1COC(C)C2` (stereo not drawn) [Example 88, N-[6-(2,2-difluoroethoxy)-5-fluoro-2-methoxy-3-pyridyl]-6-methyl-6,7-dihydro-4H-pyrazolo[5,1-c][1,4]oxazine-3-sulfonamide], for which the half-maximal inhibitory concentration (IC50) is 692 nM. The result for `Cc1ccn2c(S(=O)(=O)Nc3cc(F)c(CC#N)cc3F)cnc2c1C#N` [Example 67, 8-cyano-N-[4-(cyanomethyl)-2,5-difluoro-phenyl]-7-methyl-imidazo[1,2-a]pyridine-3-sulfonamide] reads 301 nM; that for `COc1nc(NS(=O)(=O)c2cnc3cc(Cl)ccn23)c(F)cc1C1CC1` [Example 44, 7-chloro-N-(5-cyclopropyl-3-fluoro-6-methoxy-2-pyridyl)imidazo[1,2-a]pyridine-3-sulfonamide], 76 nM; that for `COc1nc(OC(F)F)c(F)cc1NS(=O)(=O)c1cnc2cc(C3CC3)ccn12` [Example 95, 7-cyclopropyl-N-[6-(difluoromethoxy)-5-fluoro-2-methoxy-3-pyridyl]imidazo[1,2-a]pyridine-3-sulfonamide], 13 nM. With `COc1nc(C2CC2)c(F)cc1NS(=O)(=O)c1cnn2cc(Br)ccc12` [Example 82, 6-bromo-N-(6-cyclopropyl-5-fluoro-2-methoxy-3-pyridyl)pyrazolo[1,5-a]pyridine-3-sulfonamide] the figure was 100 nM.

In turn, `COc1nc(OCC(F)F)c(F)cc1NS(=O)(=O)c1cnc2c(=O)n(C)ccn12` [Example 58, N-[6-(2,2-difluoroethoxy)-5-fluoro-2-methoxy-3-pyridyl]-8-keto-7-methyl-imidazo[1,2-a]pyrazine-3-sulfonamide] yielded a half-inhibitory concentration (IC50) of 174 nM.

`COc1cc(CC#N)c(F)cc1NS(=O)(=O)c1cnc2cc(C3COC3)ccn12` [Example 101, N-[4-(cyanomethyl)-5-fluoro-2-methoxy-phenyl]-7-(oxetan-3-yl)imidazo[1,2-a]pyridine-3-sulfonamide]: the half-maximal inhibitory concentration (IC50) is 179 nM. This IC50 and that of the compound before are within 1.5-fold of each other.

The compound `COc1ccn2c(S(=O)(=O)Nc3cc(F)c(OC(F)F)nc3OC)cnc2c1` [Example 29, N-[6-(difluoromethoxy)-5-fluoro-2-methoxy-3-pyridyl]-7-methoxy-imidazo[1,2-a]pyridine-3-sulfonamide] came in with an IC50 of 33 nM.

Compound `COc1nc(OCC(F)F)c(F)cc1NS(=O)(=O)c1cnc2nc(C3CC3)ccn12` [Example 16, 7-cyclopropyl-N-[6-(2,2-difluoroethoxy)-5-fluoro-2-methoxy-3-pyridyl]imidazo[1,2-a]pyrimidine-3-sulfonamide] had an IC50 of 18 nM.

Take `COc1nc(OCC(F)F)c(F)cc1NS(=O)(=O)c1cnc2cc(C(F)(F)F)ccn12` [Example 31, N-[6-(2,2-difluoroethoxy)-5-fluoro-2-methoxy-3-pyridyl]-7-(trifluoromethyl)imidazo[1,2-a]pyridine-3-sulfonamide]: the 50% inhibitory concentration (IC50) amounted to 38 nM. `COc1nc(NS(=O)(=O)c2cnc3cc(C4CC4)ccn23)c(F)cc1CC#N` [Example 96, N-[5-(cyanomethyl)-3-fluoro-6-methoxy-2-pyridyl]-7-cyclopropyl-imidazo[1,2-a]pyridine-3-sulfonamide] displayed an IC50 of 38 nM. That is a double-digit nanomolar value.

Take `COc1cc(CC#N)c(F)cc1NS(=O)(=O)c1cnc2cc(Br)ccn12` [Example 3, 7-bromo-N-[4-(cyanomethyl)-5-fluoro-2-methoxy-phenyl]imidazo[1,2-a]pyridine-3-sulfonamide]: the IC50 was determined as 7 nM.

For `COc1nc(OCC(F)F)c(F)cc1NS(=O)(=O)c1cnc2n1CCC(C)C2` (stereo not drawn) [Example 23, N-[6-(2,2-difluoroethoxy)-5-fluoro-2-methoxy-3-pyridyl]-7-methyl-5,6,7,8-tetrahydroimidazo[1,2-a]pyridine-3-sulfonamide], the IC50 was determined as 23 nM. The result for `COc1nc(NS(=O)(=O)c2cnc3cc(Br)ccn23)c(F)cc1OCCF` [Example 47, 7-bromo-N-[3-fluoro-5-(2-fluoroethoxy)-6-methoxy-2-pyridyl]imidazo[1,2-a]pyridine-3-sulfonamide] reads 83 nM. The compound `COc1nc(NS(=O)(=O)c2cnc3cc(Cl)ccn23)c(F)cc1OC(F)F` [Example 40, 7-chloro-N-[5-(difluoromethoxy)-3-fluoro-6-methoxy-2-pyridyl]imidazo[1,2-a]pyridine-3-sulfonamide] yielded an IC50 of 64 nM. With `COc1nc(OCC(F)F)c(F)cc1NS(=O)(=O)c1cnc2nc(Br)ccn12` [Example 105, 7-bromo-N-[6-(2,2-difluoroethoxy)-5-fluoro-2-methoxy-3-pyridyl]imidazo[1,2-a]pyrimidine-3-sulfonamide] the figure was 27 nM; with `N#CCc1cc(F)c(NS(=O)(=O)c2cnc3cc(Br)ccn23)cc1F` [Example 34, 7-bromo-N-[4-(cyanomethyl)-2,5-difluoro-phenyl]imidazo[1,2-a]pyridine-3-sulfonamide], 45 nM. With `COc1nc(OCC(F)F)c(F)cc1NS(=O)(=O)c1cnc2cc(C#N)ccn12` [Example 59, 7-cyano-N-[6-(2,2-difluoroethoxy)-5-fluoro-2-methoxy-3-pyridyl]imidazo[1,2-a]pyridine-3-sulfonamide] the figure was 176 nM.
